TGI data for ten compounds are collected here from PubChem BioAssay (NCI).

Test systems include SNB-19 CNS; HL-60(TB) leukemia; UO-31 renal; U251 CNS; OVCAR-3 ovarian; MCF7 breast; ACHN renal; CCRF-CEM leukemia; SNB-75 CNS; EKVX NSCLC; HCT-116 colon; HCT-15 colon; OVCAR-4 ovarian; MALME-3M melanoma.
What all share (assay): NCI tumour cell line growth inhibition, 48 h

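Five compound concentrations were applied to cells in 96-well plates for 48 hours; endpoints were derived by simple linear interpolation of the resulting dose-response curve. TGI marks complete inhibition of growth.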

In the case of `COC1/C=C/C(C)C(C(C)C(OC)C(C)CCC(=O)C(C)C(CC(=O)O)OC)OC(=O)/C=C/C=C(\C)CC(OC)C(OC)C2=CC(=O)O[C@@H](C(C)C(OC)CC(OC)/C=C/C(C)C(O)C1)[C@H]2O` (some centres not stated), the TGI was greater than 1.07 µM in the assay on SNB-19 CNS; 0.074 µM with HL-60(TB) leukemia; 0.15 µM in the assay with UO-31 renal; greater than 1.07 µM with U251 CNS; greater than 1.07 µM with OVCAR-3 ovarian; greater than 1.07 µM in the assay on MCF7 breast. Moreover, the TGI in the assay with ACHN renal was greater than 1.07 µM; in the assay with CCRF-CEM leukemia it was greater than 1.07 µM; with SNB-75 CNS, 0.0982 µM; in the assay with EKVX NSCLC, 0.175 µM; in the assay with HCT-116 colon it was 0.227 µM; in the assay on HCT-15 colon it was 0.926 µM. The compound further gave a TGI in the assay with OVCAR-4 ovarian greater than 1.07 µM.
For `CCOC(=O)Nn1cnnc1Cc1ccccc1`, the TGI in the assay with SNB-19 CNS, with UO-31 renal, in the assay on U251 CNS, in the assay with OVCAR-3 ovarian, in the assay with MCF7 breast and in the assay with ACHN renal was greater than 100 µM throughout. Further, the TGI in the assay with CCRF-CEM leukemia, in the assay with MALME-3M melanoma, in the assay on EKVX NSCLC, in the assay with HCT-116 colon, with HCT-15 colon and with OVCAR-4 ovarian was greater than 100 µM throughout.
As to `C[C@@H]1C(=O)O[C@@H]2C[C@@]1(C)[C@@H]1C(=O)C3(O)OC14C2(C)OC(=O)[C@@]4(O)CCC1C3C(O)C=C2CC=CC(=O)[C@@]21C` (some centres not stated), the TGI was 37.8 µM in the assay on SNB-19 CNS; 40.8 µM in the assay with HL-60(TB) leukemia; 87.9 µM in the assay on UO-31 renal; greater than 100 µM with U251 CNS; greater than 100 µM with MCF7 breast; greater than 100 µM with ACHN renal. Moreover, the TGI is 40.7 µM with CCRF-CEM leukemia; 54.2 µM with SNB-75 CNS; greater than 100 µM in the assay on EKVX NSCLC; 48.2 µM in the assay on HCT-116 colon; greater than 100 µM in the assay on HCT-15 colon; greater than 100 µM with OVCAR-4 ovarian.
Turning to `Clc1ccccc1-c1nn2c(CCCCCCCCc3nnc4sc(-c5ccccc5Cl)nn34)nnc2s1`, the TGI in the assay on SNB-19 CNS, with UO-31 renal, with U251 CNS, with OVCAR-3 ovarian, in the assay on MCF7 breast and with ACHN renal was greater than 100 µM throughout. Also, the TGI in the assay on CCRF-CEM leukemia, with MALME-3M melanoma, with SNB-75 CNS, in the assay with EKVX NSCLC, in the assay with HCT-116 colon and with HCT-15 colon was greater than 100 µM each time. Moreover, the TGI with OVCAR-4 ovarian is greater than 100 µM.
Consider `CCOC(=O)C12C3CCC1C2C(=O)C3` (configuration not stated), for which the TGI with SNB-19 CNS, in the assay on UO-31 renal, in the assay on U251 CNS, in the assay on OVCAR-3 ovarian, in the assay with MCF7 breast and with ACHN renal was greater than 100 µM in each case. In addition, the TGI in the assay on CCRF-CEM leukemia, in the assay on MALME-3M melanoma, in the assay with SNB-75 CNS, with EKVX NSCLC, in the assay with HCT-116 colon and with HCT-15 colon was greater than 100 µM in each case. The TGI in the assay on OVCAR-4 ovarian was greater than 100 µM.
Take `O=[N+]([O-])/C(C(Cl)=C(Cl)Cl)=C(\Nc1cccc2cccnc12)Sc1ccccc1`: the TGI is greater than 100 µM with SNB-19 CNS; 49.7 µM in the assay with UO-31 renal; 54.2 µM in the assay with U251 CNS; 28.3 µM in the assay with OVCAR-3 ovarian; greater than 100 µM in the assay on MCF7 breast; 71.1 µM in the assay on ACHN renal. The TGI was greater than 100 µM with CCRF-CEM leukemia; 64.9 µM in the assay with MALME-3M melanoma; 72.2 µM in the assay on SNB-75 CNS; greater than 100 µM in the assay on EKVX NSCLC; 39 µM with HCT-116 colon; 34.4 µM with HCT-15 colon. Further, the TGI in the assay on OVCAR-4 ovarian turned out to be 51.4 µM.
For the compound `CC1=NN(c2cccc(Cl)c2)C(=N/c2nc3ccccc3s2)/C1=C\c1ccccc1O`, the TGI in the assay with HL-60(TB) leukemia was 80.6 µM; with UO-31 renal, greater than 100 µM; with U251 CNS it was 61 µM; in the assay with OVCAR-3 ovarian, 60.4 µM; in the assay on MCF7 breast it was greater than 100 µM; with ACHN renal, 74.3 µM. Further, the TGI is greater than 100 µM in the assay with CCRF-CEM leukemia; greater than 100 µM with SNB-75 CNS; greater than 100 µM with EKVX NSCLC; 68 µM in the assay with HCT-116 colon; 81.1 µM in the assay with HCT-15 colon; greater than 100 µM in the assay with OVCAR-4 ovarian.
Regarding `COC(=O)/C=C/COCC1C2CCC(=O)C21` (configuration not stated), the TGI with SNB-19 CNS, with UO-31 renal, with U251 CNS, in the assay with OVCAR-3 ovarian, with MCF7 breast and in the assay with ACHN renal was greater than 100 µM in each case. Moreover, the TGI with CCRF-CEM leukemia, with MALME-3M melanoma, with SNB-75 CNS, with EKVX NSCLC, with HCT-116 colon and in the assay with HCT-15 colon was greater than 100 µM each time. In the assay on OVCAR-4 ovarian, the TGI was greater than 100 µM.
Turning to `O=C1c2scc(-c3ccc(F)cc3)c2-n2cccc21`, the TGI is greater than 100 µM with SNB-19 CNS; greater than 100 µM in the assay on UO-31 renal; 51.9 µM with U251 CNS; greater than 100 µM with OVCAR-3 ovarian; greater than 100 µM in the assay on MCF7 breast; greater than 100 µM with ACHN renal. For the same compound, the TGI with CCRF-CEM leukemia is greater than 100 µM; in the assay with MALME-3M melanoma it was greater than 100 µM; in the assay on SNB-75 CNS it was 45.2 µM; with EKVX NSCLC, greater than 100 µM; in the assay with HCT-116 colon, greater than 100 µM; in the assay with HCT-15 colon, greater than 100 µM. This compound registered a TGI in the assay with OVCAR-4 ovarian greater than 100 µM.
For `O=C1CSC2(CC(/C=C/c3cccc(Br)c3)=NN2c2cccc(S(=O)(=O)O)c2)N1c1nc2ccccc2s1` (configuration not stated), the TGI with SNB-19 CNS, in the assay with UO-31 renal, in the assay with U251 CNS, with OVCAR-3 ovarian, with MCF7 breast and with ACHN renal was greater than 100 µM throughout. Further, the TGI in the assay on CCRF-CEM leukemia, in the assay on MALME-3M melanoma, with SNB-75 CNS, in the assay with EKVX NSCLC, with HCT-116 colon and in the assay on HCT-15 colon was greater than 100 µM each time. The compound further had a TGI in the assay on OVCAR-4 ovarian greater than 100 µM.
